Laboratory results from PubChem BioAssay (NCI).
Several values for one entry are separate records, joined by “and”; a condition that tells them apart may be missing. Identical values can stand only once.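 A five-concentration, 48-hour dose response in 96-well plates underlies each endpoint, interpolated linearly between surrounding concentrations. At the GI50, growth is halved. TGI denotes the concentration required for complete inhibition of growth.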

Tests used:
Assay in all cases: growth of human tumour cells (NCI), 48 h
[1] = tested on: A498 renal
[2] = tested on: ACHN renal
[3] = tested on: CCRF-CEM leukemia
[4] = tested on: HOP-92 NSCLC
[5] = tested on: IGROV1 ovarian
[6] = tested on: K-562 leukemia
[7] = tested on: MDA-MB-435
[8] = tested on: NCI-H226 lung
[9] = tested on: OVCAR-4 ovarian
[10] = tested on: SN12C renal

Structure (SMILES)	GI50 [1]	TGI [1]	GI50 [2]	TGI [2]	GI50 [3]	TGI [3]	GI50 [4]	TGI [4]	GI50 [5]	TGI [5]	GI50 [6]	TGI [6]	GI50 [7]	TGI [7]	GI50 [8]	TGI [8]	GI50 [9]	TGI [9]	GI50 [10]	TGI [10]
COc1cc2c(cc1OC)-c1c(c3ccc([N+](=O)[O-])cc3c(=O)n1CCCBr)C2=O	43.6 µM	> 100 µM	1.18 µM	36.8 µM	0.425 µM	67.7 µM	> 100 µM	> 100 µM	51.8 µM	> 100 µM	5.2 µM	> 100 µM	25.4 µM	> 100 µM	22.7 µM	85.1 µM	34.1 µM	> 100 µM	4.31 µM	> 100 µM
CN(Cc1cccc(Cl)c1)c1ccc(CO)c(Cl)c1	0.041 µM	0.169 µM	21.9 µM	93.5 µM	22.7 µM	> 73.6 µM	3.15 µM	19.8 µM	0.448 µM	4.16 µM	8.76 µM	> 100 µM	24.3 µM	85.5 µM	0.113 µM	0.284 µM	2.33 µM	16.5 µM	14.3 µM	37.2 µM
O=C1COCCN1c1ccc(NCc2cn(Cc3ccc(F)cc3)c3ccccc23)cc1	0.0203 µM	0.0821 µM	2.91 µM	31.4 µM	5.4 µM	> 96.4 µM	1.74 µM	11.8 µM	0.0668 µM	1.05 µM	1.25 µM	> 51.3 µM	14.5 µM	32.1 µM	0.0593 µM	0.275 µM	0.173 µM	3 µM	4.08 µM	> 83.7 µM
C/C(=N\O)c1ccc(Nc2cc(-c3ccccc3)nc3c(O)cccc23)cc1	14.5 µM	31 µM	10.7 µM	28.2 µM	3.51 µM	14.8 µM	20.1 µM	44.6 µM	17.1 µM	34.6 µM	15.2 µM	97.6 µM	6.72 µM	26.6 µM	14.7 µM	31.8 µM	25.4 µM	73.2 µM	11.9 µM	27.6 µM
CC/C(=C(/c1ccc(Cl)cc1)c1ccc(OCCCN(C)C)cc1)c1ccc(OC)cc1	5.5 µM	12.1 µM	5.61 µM	12.4 µM	1.79 µM	7.19 µM	0.829 µM	1.97 µM	3.09 µM	10.8 µM	1.06 µM	2.57 µM	3.28 µM	9.69 µM	7.7 µM	18.3 µM	5.25 µM	11.5 µM	5.05 µM	11.8 µM
O=C(Nc1ccc(-n2cc(-c3ccncc3)c(-c3ccc(Cl)c(O)c3)n2)cc1)c1ccc(Cl)c(C(F)(F)F)c1	5.53 µM	34.9 µM	1.55 µM	5.28 µM	1.18 µM	> 100 µM	1.99 µM	5.87 µM	3.11 µM	> 28.4 µM	0.404 µM	4.09 µM	1.45 µM	13.1 µM	16.3 µM	> 71 µM	3.66 µM	> 90.4 µM	4.39 µM	> 83.6 µM
O=C1/C=C/[C@@H](O)[C@@H]2C[C@@H](O)C[C@H]2/C=C/CCCCO1	0.166 µM	1.92 µM	0.43 µM	> 23.6 µM	0.595 µM	–	0.368 µM	> 20.8 µM	0.831 µM	3.73 µM	2.02 µM	> 100 µM	0.338 µM	> 26.8 µM	0.224 µM	–	0.47 µM	> 100 µM	0.954 µM	> 100 µM
COc1nc(C(Cl)(Cl)Cl)c(Cl)c(OC)c1Cl	> 35.9 µM	> 55.7 µM and 96.2 µM	–	> 54.1 µM and 73.5 µM	> 45.5 µM	> 64.4 µM and 121 µM	> 40.4 µM	> 59.3 µM and 62 µM	> 58.5 µM	89.8 µM	> 42.6 µM	> 63.4 µM and 94.2 µM	–	79.7 µM	–	71.5 µM	> 52.1 µM	99.9 µM and 66.3 µM	–	> 52.9 µM and 74 µM
COc1cc(Cl)c(C)cc1NC(=O)c1cc2ccccc2cc1O	1.65 µM	4.77 µM	2.67 µM	11.4 µM	3.11 µM	19.6 µM	0.398 µM	3.57 µM	3.04 µM	34.4 µM	2.82 µM	23 µM	2.6 µM	8.92 µM	1.94 µM	6.28 µM	3.28 µM	18.5 µM	1.68 µM	10.1 µM
Cc1nc(N(C)C)nc(-c2cccc(-c3ccn(CCN(C)C)n3)c2)c1C	0.628 µM	> 20 µM	> 20 µM	> 20 µM	> 20 µM	> 20 µM	4.71 µM	> 20 µM	> 20 µM	> 20 µM	> 20 µM	> 20 µM	> 20 µM	> 20 µM	> 20 µM	> 20 µM	> 20 µM	> 20 µM	> 20 µM	> 20 µM
Cc1cnc2n(c1=O)Cc1ccccc1CO2	19.5 µM	45.4 µM	17.4 µM	33.8 µM	2.35 µM	10.5 µM	19.3 µM	44.3 µM	14.4 µM	32.5 µM	18.7 µM	48.3 µM	25.9 µM	> 72.1 µM	20.4 µM	52.5 µM	22 µM	64.1 µM	23.2 µM	71.3 µM
Cn1cc(C2=C(c3cn(CCCN/C(N)=N\[N+](=O)[O-])c4ccccc34)C(=O)NC2=O)c2ccccc21	2.85 µM	9.6 µM	6.26 µM	> 25 µM	0.0877 µM	6.63 µM	3.89 µM	16.2 µM	3.11 µM	11.6 µM	2.95 µM	> 22.5 µM	3.01 µM	7.73 µM	4.56 µM	> 19.1 µM	3.22 µM	17.4 µM	2.65 µM	16.6 µM
C=CCOc1ccc2c(c1)CC[C@@H]1[C@@H]2CC[C@]2(C)C(=O)/C(=N/O)C[C@@H]12	1.97 µM	21.3 µM	2.58 µM	> 37.2 µM	2.51 µM	8.67 µM	1.52 µM	5.98 µM	3.42 µM	14.2 µM	2.88 µM	8.61 µM	3.27 µM	17.2 µM	5.06 µM	21.7 µM	2.17 µM	8.6 µM	4.01 µM	> 44.2 µM
